These results are taken from patent US20210070748A1, “INHIBITORS OF BRUTONS TYROSINE KINASE” (Pharmacyclics LLC, priority 2015, published 2021).

Holding throughout (format): biochemical
One experiment has as its target LCK (Homo sapiens, UniProt P06239). As to the kind of experiment: Inhibition of a panel of kinases, in vitro HotSpot kinase assay: LCK. The following applies: read-out: IC50 LCK.
The target in the next experiment is T1, ITK (Homo sapiens, UniProt Q08881).
T1 sequence (Q08881 1-620): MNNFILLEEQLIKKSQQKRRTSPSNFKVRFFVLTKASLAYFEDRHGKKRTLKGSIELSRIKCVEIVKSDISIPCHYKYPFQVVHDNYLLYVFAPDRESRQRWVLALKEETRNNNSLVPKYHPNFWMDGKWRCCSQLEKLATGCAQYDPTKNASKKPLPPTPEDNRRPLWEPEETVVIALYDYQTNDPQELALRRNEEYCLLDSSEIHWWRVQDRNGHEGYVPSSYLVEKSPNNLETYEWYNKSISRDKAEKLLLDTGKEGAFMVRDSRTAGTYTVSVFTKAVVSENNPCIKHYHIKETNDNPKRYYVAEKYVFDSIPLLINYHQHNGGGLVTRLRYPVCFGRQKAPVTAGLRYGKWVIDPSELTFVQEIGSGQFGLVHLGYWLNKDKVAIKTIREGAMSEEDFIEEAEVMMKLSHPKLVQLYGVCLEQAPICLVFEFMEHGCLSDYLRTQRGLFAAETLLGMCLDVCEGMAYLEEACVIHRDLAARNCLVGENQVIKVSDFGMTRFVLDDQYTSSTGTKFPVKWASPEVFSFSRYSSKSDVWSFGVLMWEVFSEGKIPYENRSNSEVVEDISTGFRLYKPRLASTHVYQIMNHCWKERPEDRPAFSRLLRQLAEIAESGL
As to the kind of experiment: Inhibition of a panel of kinases, in vitro HotSpot kinase assay: ITK. The procedure: (§1) The degree of inhibition of a panel of kinases is determined using the in vitro HotSpot kinase assay (purified enzymes, ^33P-ATP, an appropriate substrate and 1 μM ATP).

The target in a further experiment is EGFR (Homo sapiens, UniProt P00533). In words: Inhibition of a panel of kinases, in vitro HotSpot kinase assay: EGFR. The procedure:
as §1

In the next experiment the target is T2, JAK3 (Homo sapiens, UniProt P52333).
T2 sequence (P52333 1-1124): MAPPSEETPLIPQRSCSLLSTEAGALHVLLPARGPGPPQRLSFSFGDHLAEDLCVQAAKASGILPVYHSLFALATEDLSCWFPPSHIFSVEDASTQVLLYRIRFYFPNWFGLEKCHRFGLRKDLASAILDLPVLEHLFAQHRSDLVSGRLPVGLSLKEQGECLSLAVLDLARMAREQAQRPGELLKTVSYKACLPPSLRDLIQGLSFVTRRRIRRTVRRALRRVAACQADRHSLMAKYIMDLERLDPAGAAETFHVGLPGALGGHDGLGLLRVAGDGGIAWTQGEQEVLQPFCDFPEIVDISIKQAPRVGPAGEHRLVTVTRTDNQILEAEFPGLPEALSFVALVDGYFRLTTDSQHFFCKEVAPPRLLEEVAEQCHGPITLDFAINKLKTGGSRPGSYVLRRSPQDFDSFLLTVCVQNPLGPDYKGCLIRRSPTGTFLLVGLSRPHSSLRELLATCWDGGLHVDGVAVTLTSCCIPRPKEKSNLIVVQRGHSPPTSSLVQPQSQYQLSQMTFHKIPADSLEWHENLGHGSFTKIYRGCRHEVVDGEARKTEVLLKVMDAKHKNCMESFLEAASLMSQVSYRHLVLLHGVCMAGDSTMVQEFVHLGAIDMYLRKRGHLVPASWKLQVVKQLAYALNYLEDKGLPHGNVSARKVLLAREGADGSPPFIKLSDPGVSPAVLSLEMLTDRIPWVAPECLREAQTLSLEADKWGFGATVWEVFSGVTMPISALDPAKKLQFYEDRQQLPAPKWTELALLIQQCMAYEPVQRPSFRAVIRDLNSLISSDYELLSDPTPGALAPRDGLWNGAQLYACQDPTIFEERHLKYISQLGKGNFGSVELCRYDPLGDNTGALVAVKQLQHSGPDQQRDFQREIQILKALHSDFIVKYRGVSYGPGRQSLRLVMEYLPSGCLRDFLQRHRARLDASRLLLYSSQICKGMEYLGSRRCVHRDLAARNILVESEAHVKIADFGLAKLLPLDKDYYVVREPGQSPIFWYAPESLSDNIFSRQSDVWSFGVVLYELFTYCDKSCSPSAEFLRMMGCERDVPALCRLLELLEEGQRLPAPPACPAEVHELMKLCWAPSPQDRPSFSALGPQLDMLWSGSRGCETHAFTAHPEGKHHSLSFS
As to the kind of experiment: Inhibition of a panel of kinases, in vitro HotSpot kinase assay: JAK3. The following applies: read-out: IC50 JAK3.

[1] abbreviates: D-compounds panel data, 1 μM ATP.

pIC50: −log10 of the molar value. Read-outs that look alike come from different tables or passages of the source. A value given as a limit tells only on which side of the number the result lay.

As a reminder, the pIC50 is the IC50 on a negative log10 scale, so that one unit is a factor of ten.

EGFR, sequence (P00533 25-1210): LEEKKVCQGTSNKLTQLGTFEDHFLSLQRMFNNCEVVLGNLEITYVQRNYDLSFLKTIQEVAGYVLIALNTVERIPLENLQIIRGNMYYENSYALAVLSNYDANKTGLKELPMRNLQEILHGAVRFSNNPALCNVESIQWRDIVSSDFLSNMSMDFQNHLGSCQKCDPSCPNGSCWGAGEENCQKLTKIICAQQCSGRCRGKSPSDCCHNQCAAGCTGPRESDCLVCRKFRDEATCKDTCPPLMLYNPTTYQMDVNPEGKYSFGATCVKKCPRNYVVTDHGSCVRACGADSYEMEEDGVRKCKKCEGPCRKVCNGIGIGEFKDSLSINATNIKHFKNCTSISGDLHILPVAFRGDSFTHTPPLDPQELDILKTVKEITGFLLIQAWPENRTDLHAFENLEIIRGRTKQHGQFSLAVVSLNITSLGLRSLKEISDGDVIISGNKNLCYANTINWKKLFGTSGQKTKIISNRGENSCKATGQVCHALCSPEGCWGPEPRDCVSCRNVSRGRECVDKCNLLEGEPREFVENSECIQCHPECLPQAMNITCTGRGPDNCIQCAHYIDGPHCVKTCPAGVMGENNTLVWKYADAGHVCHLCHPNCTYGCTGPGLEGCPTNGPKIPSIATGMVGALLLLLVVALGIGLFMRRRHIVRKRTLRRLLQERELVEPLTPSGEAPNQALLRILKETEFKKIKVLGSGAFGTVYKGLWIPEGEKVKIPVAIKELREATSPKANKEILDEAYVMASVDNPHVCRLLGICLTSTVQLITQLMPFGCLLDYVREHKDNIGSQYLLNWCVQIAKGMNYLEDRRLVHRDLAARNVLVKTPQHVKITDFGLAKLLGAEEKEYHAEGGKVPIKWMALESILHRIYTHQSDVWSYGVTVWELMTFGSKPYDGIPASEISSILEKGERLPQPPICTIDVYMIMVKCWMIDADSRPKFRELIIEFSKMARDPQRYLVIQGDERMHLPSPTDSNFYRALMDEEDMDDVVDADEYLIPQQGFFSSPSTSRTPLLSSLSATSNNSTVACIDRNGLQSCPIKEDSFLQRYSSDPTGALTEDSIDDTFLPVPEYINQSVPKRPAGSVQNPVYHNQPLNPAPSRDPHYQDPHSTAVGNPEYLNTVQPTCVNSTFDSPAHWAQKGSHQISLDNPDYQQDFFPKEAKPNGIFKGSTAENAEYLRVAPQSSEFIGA
LCK, sequence (P06239 whole entry): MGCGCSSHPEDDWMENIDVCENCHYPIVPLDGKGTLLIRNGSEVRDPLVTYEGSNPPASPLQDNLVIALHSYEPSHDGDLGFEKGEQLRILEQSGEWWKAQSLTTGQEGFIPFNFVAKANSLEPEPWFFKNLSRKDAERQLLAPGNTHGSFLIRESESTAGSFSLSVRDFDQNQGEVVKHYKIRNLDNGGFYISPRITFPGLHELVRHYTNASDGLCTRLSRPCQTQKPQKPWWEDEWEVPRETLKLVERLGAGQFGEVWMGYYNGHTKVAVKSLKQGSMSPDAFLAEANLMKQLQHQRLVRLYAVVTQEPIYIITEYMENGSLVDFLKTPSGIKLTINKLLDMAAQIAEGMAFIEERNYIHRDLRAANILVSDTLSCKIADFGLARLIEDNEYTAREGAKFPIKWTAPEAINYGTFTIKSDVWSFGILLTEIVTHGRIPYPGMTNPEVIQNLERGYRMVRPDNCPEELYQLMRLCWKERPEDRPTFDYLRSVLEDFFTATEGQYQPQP

For `C[C@H]1C[C@H](NC(=O)c2ccc(C3CC3)cc2)CN(c2cnc(C(N)=O)c(Nc3cnn(C)c3)n2)C1` [Example D-34, 5-[(3S,5S)-3-(4-cyclopropylbenzamido)-5-methylpiperidin-1-yl]-3-[(1-methyl-1H-pyrazol-4-yl)amino]pyrazine-2-carboxamide], the negative-log IC50 (pIC50) at LCK (setting [1]), on ITK (setting [1]), against EGFR (setting [1]) and at JAK3 (setting [1]) was less than 5.00 each time.
For the compound `CC(C)n1ccc(C(=O)N[C@@H]2CCCN(c3cnc(C(N)=O)c(Nc4cnn(C)c4)n3)[C@@H]2C)cc1=O` [Example D-35, 3-[(1-methyl-1H-pyrazol-4-yl)amino]-5-[(2R,3R)-2-methyl-3-[2-oxo-1-(propan-2-yl)-1,2-dihydropyridine-4-amido]piperidin-1-yl]pyrazine-2-carboxamide], the pIC50 on LCK (setting [1]) is 6.00 to 7.00; against ITK (setting [1]), 5.00 to 6.00; at EGFR (setting [1]), 5.00 to 6.00; on JAK3 (setting [1]), 6.00 to 7.00.
For `Cc1cc(Nc2nc(N3C[C@H](NC(=O)N(C)C)CC[C@H]3C)cnc2C(N)=O)sn1` [Example D-77, 5-[(2R,5R)-5-[(dimethylcarbamoyl)amino]-2-methylpiperidin-1-yl]-3-[(3-methyl-1,2-thiazol-5-yl)amino]pyrazine-2-carboxamide], the pIC50 is 5.00 to 6.00 on LCK (setting [1]), less than 5.00 against ITK (setting [1]), 5.00 to 6.00 against EGFR (setting [1]) and 5.00 to 6.00 at JAK3 (setting [1]).
For `Cn1cc(Nc2nc(N3C[C@H](CO)C[C@H](NC(=O)c4ccc(C5CC5)cc4)C3)cnc2C(N)=O)cn1` (racemic) [Example D-43, (racemic)-cis-5-[3-(4-cyclopropylbenzamido)-5-(hydroxymethyl)piperidin-1-yl]-3-[(1-methyl-1H-pyrazol-4-yl)amino]pyrazine-2-carboxamide], the pIC50 is 6.00 to 7.00 on LCK (setting [1]), 6.00 to 7.00 against ITK (setting [1]), 5.00 to 6.00 on EGFR (setting [1]) and 6.00 to 7.00 on JAK3 (setting [1]).
On to `CN(C)C(=O)N[C@H]1CCCN(c2cnc(C(N)=O)c(Nc3ccc(C4(C)CCN(C5CCCC5)CC4)cc3)n2)[C@H]1CO` [Example D-59, 3-{[4-(1-cyclopentyl-4-methylpiperidin-4-yl)phenyl]amino}-5-[(2R,3S)-3-[(dimethylcarbamoyl)amino]-2-(hydroxymethyl)piperidin-1-yl]pyrazine-2-carboxamide], for which the pIC50 is 5.00 to 6.00 at LCK (setting [1]), 5.00 to 6.00 at ITK (setting [1]), 5.00 to 6.00 against EGFR (setting [1]) and less than 5.00 at JAK3 (setting [1]).
In the case of `C[C@@H]1[C@H](NC(=O)c2cnn(C(C)(C)C)c2)CCCN1c1cnc(C(N)=O)c(Nc2cnn(C)c2)n1` [Example D-57, 5-[(2R,3R)-3-(1-tert-butyl-1H-pyrazole-4-amido)-2-methylpiperidin-1-yl]-3-[(1-methyl-1H-pyrazol-4-yl)amino]pyrazine-2-carboxamide], the pIC50 on LCK (setting [1]) is 6.00 to 7.00; against ITK (setting [1]), 6.00 to 7.00; against EGFR (setting [1]) it was 5.00 to 6.00; on JAK3 (setting [1]), 5.00 to 6.00.
With `C=CC(=O)N1CC[C@@H](N(C)c2cnc(C(N)=O)c(Nc3ccc(C4(C)CCN(C5CCCC5)CC4)cc3)n2)C1` [Example E-106, (R)-5-((1-acryloylpyrrolidin-3-yl)(methyl)amino)-3-(4-(1-cyclopentyl-4-methylpiperidin-4-yl)phenylamino)pyrazine-2-carboxamide], the negative-log IC50 (pIC50) at LCK (E compounds, Table 17) is 7.00 to 8.00; at ITK (E compounds, Table 17), not below 8.00; against EGFR (E compounds, Table 17) it was not below 8.00; at JAK3 (E compounds, Table 17), more than 8.00.
Consider `Cn1cc(Nc2nc(N3CCC[C@@H]4[C@H]3CCN4C(=O)c3ccc(C4CC4)cc3)cnc2C(N)=O)cn1` [Example D-44, 5-[(3aR,7aR)-1-(4-cyclopropylbenzoyl)-octahydro-1H-pyrrolo[3,2-b]pyridin-4-yl]-3-[(1-methyl-1H-pyrazol-4-yl)amino]pyrazine-2-carboxamide], for which the pIC50 is 6.00 to 7.00 at LCK (setting [1]), less than 5.00 against ITK (setting [1]), 6.00 to 7.00 on EGFR (setting [1]) and 5.00 to 6.00 at JAK3 (setting [1]).
As for `Cn1cc(Nc2nc(N3CCC[C@H]4[C@@H]3CCN4C(=O)c3ccc(C4CC4)cc3)cnc2C(N)=O)cn1` [Example D-45, 5-[(3aS,7aS)-1-(4-cyclopropylbenzoyl)-octahydro-1H-pyrrolo[3,2-b]pyridin-4-yl]-3-[(1-methyl-1H-pyrazol-4-yl)amino]pyrazine-2-carboxamide], the pIC50 on LCK (setting [1]) was 6.00 to 7.00; against ITK (setting [1]), 5.00 to 6.00; against EGFR (setting [1]), less than 5.00; on JAK3 (setting [1]), 5.00 to 6.00.
For `C[C@@H]1[C@H](NC(=O)c2ccc(C3CC3)cc2F)CCCN1c1cnc(C(N)=O)c(Nc2ccc(C3(C)CCN(C4CCCC4)CC3)cc2)n1` [Example D-66, 3-{[4-(1-cyclopentyl-4-methylpiperidin-4-yl)phenyl]amino}-5-[(2R,3R)-3-(4-cyclopropyl-2-fluorobenzamido)-2-methylpiperidin-1-yl]pyrazine-2-carboxamide], the pIC50 at LCK (setting [1]) was more than 8.00; against ITK (setting [1]), 7.00 to 8.00; against EGFR (setting [1]), 7.00 to 8.00; on JAK3 (setting [1]), 6.00 to 7.00.
As for `C[C@@H]1C[C@@H](NC(=O)c2ccc(C3CC3)cc2)CN(c2cnc(C(N)=O)c(Nc3cnn(C)c3)n2)C1` [Example D-31, 5-[(3R,5R)-3-(4-cyclopropylbenzamido)-5-methylpiperidin-1-yl]-3-[(1-methyl-1H-pyrazol-4-yl)amino]pyrazine-2-carboxamide], the pIC50 on LCK (setting [1]) is 5.00 to 6.00; against ITK (setting [1]) it was 5.00 to 6.00; at EGFR (setting [1]), less than 5.00; at JAK3 (setting [1]), 5.00 to 6.00.
In the case of `C[C@@H]1[C@H](NC(=O)c2ccc(C3CC3)cc2)CCCN1c1cnc(C(N)=O)c(Nc2ccc(N3CCC(C(=O)N(C)C)CC3)cc2)n1` [Example D-320, 5-[(2R,3R)-3-(4-cyclopropylbenzamido)-2-methylpiperidin-1-yl]-3-({4-[4-(dimethylcarbamoyl)piperidin-1-yl]phenyl}amino)pyrazine-2-carboxamide], the pIC50 at LCK (setting [1]) is 7.00 to 8.00; on ITK (setting [1]), 7.00 to 8.00; against EGFR (setting [1]), 6.00 to 7.00; at JAK3 (setting [1]), 5.00 to 6.00.
As to `CN(C)C(=O)N[C@@H]1CCCN(c2cnc(C(N)=O)c(Nc3ccc(C4(C)CCN(C5CCCC5)CC4)cc3)n2)[C@@H]1CO` [Example D-58, 3-{[4-(1-cyclopentyl-4-methylpiperidin-4-yl)phenyl]amino}-5-[(2S,3R)-3-[(dimethylcarbamoyl)amino]-2-(hydroxymethyl)piperidin-1-yl]pyrazine-2-carboxamide], the pIC50 was 6.00 to 7.00 on LCK (setting [1]), 5.00 to 6.00 against ITK (setting [1]), 6.00 to 7.00 on EGFR (setting [1]) and 5.00 to 6.00 on JAK3 (setting [1]).
For `C[C@@H]1[C@H](NC(=O)c2ccc(C(C)(C)O)nc2)CCCN1c1nnc(C(N)=O)c(Nc2cnn(C)c2)n1` [Example D-41, 3-[(2R,3R)-3-[6-(2-hydroxypropan-2-yl)pyridine-3-amido]-2-methylpiperidin-1-yl]-5-[(1-methyl-1H-pyrazol-4-yl)amino]-1,2,4-triazine-6-carboxamide], the pIC50 was 7.00 to 8.00 at LCK (setting [1]), 6.00 to 7.00 against ITK (setting [1]), 5.00 to 6.00 at EGFR (setting [1]) and 6.00 to 7.00 on JAK3 (setting [1]).
